From patent publication EP0731697B1, “SSI TYRPHOSTINS AND PHARMACEUTICAL COMPOSITIONS” (priority 1993, dated 1995)
Like-named read-outs stand apart in the source and are kept apart here.

Tests used:
[1] = tested on: Murine fibroblastic cells (A9); conditions: for Protection Against TNF-α-Induced Cytotoxicity (cell viability): 1440 min
Experimental: Tyrphostins at different concentration were added 2 hr prior to TNF. After 24 hrs cells viability was determined by vital staining using neutral red.
Recombinant human TNFα is added to a mouse fibroblastic cell line (A9), cultured in the presence of cyclohexamine and cell viability is monitored after 20 hours. […] The percentage of live cells was measured from 2 hours prior to administration until 4 hours after administration for a control and for TNF at concentrations of 0.2 ng/ml, 0.05 ng/ml, and 1.0 ng/ml.

TNF-α [2] = assay: LPS-induced production of TNF-α by activated murine peritoneal macrophages in vitro
Experimental: The amount of TNF-α was quantitated by assessing the extent of killing of the TNF-α sensitive cell line (A9) essentially as described by Ruff and Gilford, G. E. J. Immunol. […] Briefly, mouse A9 fibroblasts were plated in 96-well flat-bottom micro-titer plates at 30,000 cells /0.1 ml to establish a dense monolayer. After incubation for 24 hr at 37 C in a humidified 5% CO2 atmosphere, cycloheximide was added to a final concentration of 50 ug/ml and 100 ul of serially diluted test samples were added to the wells. After incubation for additional 18 hr the supernatants were carefully aspirated, the monolayer were washed twice with PBS and 200 ul of neutral red solution (0.02%) was added. After incubation for 2 hr, cells were washed and the dye that had been absorbed by the live cells was extracted using 200 ul of 50% ethanol. The concentration of the dye was determined by an ELISA autoreader using a 550 nm filter. Murine TNF-α ELISA kit from ENDOGEN Inc., was used for quancitation of murine TNF-α.
Mice were injected i.p. with 1 ml sodium periodate (5mM). Three to 4 days later, macrophages were washed from the peritoneal cavity with PBS. After centrifugation at 170g for 10 min at 40° C, the cell pellet was resuspended in RPMI 1640 containing 10% heat-inactivated new born calf serum. Adherent macrophage monolayers were obtained by plating the cells in 96-well plastic trays at 4x10^5 cells/well for 2 hr at 37°C in 5% CO2/air. Nonadherent cells were removed by suction and complete medium was added.

EGF receptor = EGF receptor (Homo sapiens, UniProt P00533); conditions: even at concentrations above 100 uM; cited from earlier work
Sequence of EGF receptor (P00533 25-1210): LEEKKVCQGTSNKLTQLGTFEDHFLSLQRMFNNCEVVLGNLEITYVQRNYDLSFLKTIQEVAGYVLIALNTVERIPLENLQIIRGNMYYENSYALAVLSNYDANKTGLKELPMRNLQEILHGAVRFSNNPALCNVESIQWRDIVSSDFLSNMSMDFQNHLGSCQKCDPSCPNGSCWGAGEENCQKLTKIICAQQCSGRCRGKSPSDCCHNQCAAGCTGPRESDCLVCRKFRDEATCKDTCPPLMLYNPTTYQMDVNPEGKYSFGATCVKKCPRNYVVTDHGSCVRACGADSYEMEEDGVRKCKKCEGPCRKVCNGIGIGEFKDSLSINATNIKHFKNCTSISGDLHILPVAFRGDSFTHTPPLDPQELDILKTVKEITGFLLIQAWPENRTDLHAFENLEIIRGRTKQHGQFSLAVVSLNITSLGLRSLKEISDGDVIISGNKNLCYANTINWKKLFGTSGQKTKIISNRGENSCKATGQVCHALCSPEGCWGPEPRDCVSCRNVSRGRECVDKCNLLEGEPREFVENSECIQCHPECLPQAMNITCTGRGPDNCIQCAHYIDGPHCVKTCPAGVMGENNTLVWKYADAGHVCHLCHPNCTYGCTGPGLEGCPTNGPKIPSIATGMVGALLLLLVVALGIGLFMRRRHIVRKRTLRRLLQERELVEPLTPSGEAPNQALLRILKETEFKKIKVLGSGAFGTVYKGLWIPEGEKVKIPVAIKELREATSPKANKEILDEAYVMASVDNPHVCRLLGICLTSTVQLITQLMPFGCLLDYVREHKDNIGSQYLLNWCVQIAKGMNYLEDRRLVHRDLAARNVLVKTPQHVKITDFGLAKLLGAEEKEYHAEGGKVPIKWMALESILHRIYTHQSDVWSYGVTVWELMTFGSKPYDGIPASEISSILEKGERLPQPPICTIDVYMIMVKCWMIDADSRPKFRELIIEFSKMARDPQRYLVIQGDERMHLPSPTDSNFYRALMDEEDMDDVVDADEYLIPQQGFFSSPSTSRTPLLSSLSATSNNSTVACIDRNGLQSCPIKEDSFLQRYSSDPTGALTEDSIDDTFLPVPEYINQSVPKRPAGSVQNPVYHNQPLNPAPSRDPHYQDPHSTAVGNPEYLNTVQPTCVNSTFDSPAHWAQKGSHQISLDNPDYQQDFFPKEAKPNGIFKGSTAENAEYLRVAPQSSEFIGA

[3] = tested on: murine peritoneal macrophages; assay: NO2- production by periodate-activated murine peritoneal macrophages; format: cell-based
Experimental: Nitrite (NO2-) levels were determined in supernatants at the time indicated, as described herein. (Table 5) Values are expressed as means of triplicate cultures. […] Two additional experiments yielded similar results.
NO2- the product of NO oxidation is used to determine NO produced. Nitrite concentration in supernatants of macrophages was measured by a microplate assay method. 100 ul aliquots of supernatants were incubated with an equal volume of Griess reagent (1% sulfanilamide/O.1% naphthylethylene diamine dihydrochloride/2.5% H3PO4) at room temperature for 10 min. The absorbance at 550nm was determined in a microplate reader. Sodium nitrite was used as a standard.
Mice were injected i.p. with 1 ml sodium periodate (5mM). Three to 4 days later, macrophages were washed from the peritoneal cavity with PBS. After centrifugation at 170g for 10 min at […], the cell pellet was resuspended in RPMI 1640 containing 10% heat-inactivated new born calf serum. Adherent macrophage monolayers were obtained by plating the cells in 96-well plastic trays at 4x10^5 cells/well for 2 hr at 37°C in 5% CO2/air. Nonadherent cells were removed by suction and complete medium was added. […]

Her-2/neu receptor = Her-2/neu receptor (Homo sapiens, UniProt P04626); conditions: even at concentrations above 100 uM; cited from earlier work
Sequence of Her-2/neu receptor (P04626 23-1255): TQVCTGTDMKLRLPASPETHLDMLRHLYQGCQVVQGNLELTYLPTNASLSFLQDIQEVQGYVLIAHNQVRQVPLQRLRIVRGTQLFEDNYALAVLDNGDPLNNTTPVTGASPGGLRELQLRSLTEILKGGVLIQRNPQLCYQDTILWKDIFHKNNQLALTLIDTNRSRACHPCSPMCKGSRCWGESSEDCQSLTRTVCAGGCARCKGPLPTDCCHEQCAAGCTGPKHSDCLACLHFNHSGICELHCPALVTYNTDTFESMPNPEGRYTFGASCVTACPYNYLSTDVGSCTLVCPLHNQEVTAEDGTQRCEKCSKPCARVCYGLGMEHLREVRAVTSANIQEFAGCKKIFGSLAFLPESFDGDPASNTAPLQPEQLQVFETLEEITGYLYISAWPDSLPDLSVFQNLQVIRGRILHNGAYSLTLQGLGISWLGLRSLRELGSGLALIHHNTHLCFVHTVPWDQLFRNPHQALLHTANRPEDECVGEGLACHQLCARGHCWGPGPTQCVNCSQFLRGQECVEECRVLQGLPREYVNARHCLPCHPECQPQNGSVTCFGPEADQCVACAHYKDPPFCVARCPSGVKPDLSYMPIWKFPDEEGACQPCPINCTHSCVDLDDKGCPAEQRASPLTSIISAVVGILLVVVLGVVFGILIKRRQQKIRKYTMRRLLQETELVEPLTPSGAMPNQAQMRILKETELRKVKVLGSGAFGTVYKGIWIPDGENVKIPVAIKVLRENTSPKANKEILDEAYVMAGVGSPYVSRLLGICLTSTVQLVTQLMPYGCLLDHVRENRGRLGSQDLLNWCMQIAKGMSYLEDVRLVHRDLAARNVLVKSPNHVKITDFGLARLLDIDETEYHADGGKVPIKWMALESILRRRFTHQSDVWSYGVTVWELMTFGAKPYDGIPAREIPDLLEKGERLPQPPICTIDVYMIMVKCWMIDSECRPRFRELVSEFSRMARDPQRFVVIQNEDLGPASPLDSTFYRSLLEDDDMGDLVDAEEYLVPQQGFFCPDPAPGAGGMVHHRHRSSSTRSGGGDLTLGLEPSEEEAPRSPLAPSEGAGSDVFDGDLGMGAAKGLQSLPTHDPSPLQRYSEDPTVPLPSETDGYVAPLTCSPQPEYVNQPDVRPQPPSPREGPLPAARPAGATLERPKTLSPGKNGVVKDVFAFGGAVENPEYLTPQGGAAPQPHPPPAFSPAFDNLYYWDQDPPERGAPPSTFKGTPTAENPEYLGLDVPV

PDGFR = conditions: even at concentrations above 100 uM; cited from earlier work
TNF-α [4] = assay: LPS induced increase in serum TNF-α levels in mice; format: in vivo
Description: TNF-α was implicated to mediate many of the toxic effect of LPS. For example, the effect of SSI 3 on serum TNF-α levels in mice which had been treated with LPS was investigated. LPS induced a rapid increase in serum TNF-α levels. […] […] The bioassay gave somewhat higher levels compared to the ELISA. This finding may indicate that the serum from LPS-treated mice contained in addition to TNF-α, other cytotoxic factors.
The amount of TNF-α was quantitated by assessing the extent of killing of the TNF-α sensitive cell line (A9) essentially as described by Ruff and Gilford, G. E. J. Immunol. 125, 1671-1677, (1980). Briefly, mouse A9 fibroblasts were plated in 96-well flat-bottom micro-titer plates at 30,000 cells /0.1 ml to establish a dense monolayer. After incubation for 24 hr at 37 C in a humidified 5% CO2 atmosphere, cycloheximide was added to a final concentration of 50 ug/ml and 100 ul of serially diluted test samples were added to the wells. After incubation for additional 18 hr the supernatants were carefully aspirated, the monolayer were washed twice with PBS and 200 ul of neutral red solution (0.02%) was added. After incubation for 2 hr, cells were washed and the dye that had been absorbed by the live cells was extracted using 200 ul of 50% ethanol. The concentration of the dye was determined by an ELISA autoreader using a 550 nm filter. Murine TNF-α ELISA kit from ENDOGEN Inc., was used for quancitation of murine TNF-α.

mice = assay: LPS-induced lethal toxicity in mice; conditions: for mice alive after 7 days: 100 ug/mouse 2 hours before or after LPS
[5] = Solubility in aqueous solution; format: physicochemical
[6] = LPS 200 µg/mouse, AG 300 µg/mouse 2 hrs prior to LPS, 1hr, mean (two single values)
[7] = LPS 200 µg/mouse, AG 300 µg/mouse 2 hrs prior to LPS, 2hr, mean (two single values)
[8] = no LPS (-), AG 300 µg/mouse, 1hr

Row | Structure (SMILES) | blocking TNF-α induced cytotoxicity in vitro [1] | Protection Against TNF-α-Induced Cytotoxicity (cell viability) ([1]; TNF-α 0 ng/ml) | Protection Against TNF-α-Induced Cytotoxicity (cell viability) ([1]; TNF-α 0.2 ng/ml, none 41±2.3) | Protection Against TNF-α-Induced Cytotoxicity (cell viability) ([1]; TNF-α 0.5 ng/ml, none 20±1.7) | TNF-α (TNF-α [2]; LPS +) | TNF-α (TNF-α [2]; LPS -) | NO2- Production by Macrophages ([3]; SSI 20 uM, LPS 10 ug, 1 DAY) | NO2- Production by Macrophages ([3]; SSI 20 uM, LPS 10 ug, 2 DAY) | NO2- Production by Macrophages ([3]; SSI 20 uM, LPS 10 ug, 3 DAY) | NO2- Production by Macrophages ([3]; SSI 20 uM, no LPS, 1 DAY) | NO2- Production by Macrophages ([3]; SSI 20 uM, no LPS, 2 DAY) | NO2- Production by Macrophages ([3]; SSI 20 uM, no LPS, 3 DAY) | NO2- Production by Macrophages ([3]; SSI 50 uM, no LPS, 1 DAY) | NO2- Production by Macrophages ([3]; SSI 50 uM, no LPS, 2 DAY) | NO2- Production by Macrophages ([3]; SSI 50 uM, no LPS, 3 DAY) | Serum TNF-α (TNF-α [4]; [6]) | Serum TNF-α (TNF-α [4]; [7]) | Serum TNF-α (TNF-α [4]; [8]) | also measured
1 | N#CC(C#N)=Cc1cc(O)c(O)c([N+](=O)[O-])c1 [SSI 8] | active | 100 | 67±4.1 | 46+2.8 | <5 pg/mL | <5 pg/mL | 42,7 µg | 80,6 µg | 83,4 µg | 10,4 µg | 13,5 µg | 11,8 µg | 5,8 µg | 8,1 µg | 5,9 µg |  |  |  | ability to inhibit LPS-induced production of TNF-α by activated murine peritoneal macrophages in vitro (TNF-α [2]; among the tyrphostins tested): most potent; effect on EGF receptor (EGF receptor): no effect; NO2- production in unstimulated and LPS-stimulated periodate-activated murine macrophages ([3]; LPS (10 mg/ml)): effectively inhibited; NO2- Production by Macrophages ([3]; SSI 50uM, LPS 10 ug, 1 DAY): 6,4 µg; NO2- Production by Macrophages ([3]; SSI 50uM, LPS 10 ug, 2 DAY): 11,5 µg; NO2- Production by Macrophages ([3]; SSI 50uM, LPS 10 ug, 3 DAY): 22,4 µg; effect on Her-2/neu receptor (Her-2/neu receptor): no effect; effect on PDGFR (PDGFR): no effect
2 | N#CC(=Cc1cc(O)c(O)c([N+](=O)[O-])c1)C(=O)O [SSI 9] | not |  |  |  | 17 pg/mL | <5 pg/mL | 71,3 µg | 112,9 µg | 136 µg | 41,8 µg | 57,2 µg | 45,1 µg | 36 µg | 51 µg | 33 µg | 17.7 (17.3, 18.2) ng/ml | 11.1 (10.5, 11.7) ng/ml | 16.0 ng/mL | 
3 | N#CC(=Cc1cc(O)c(O)c([N+](=O)[O-])c1)C(=O)NCCCc1ccccc1 [SSI 10] |  |  |  |  |  |  | 42,3 µg | 100,9 µg | 124,9 µg | 23,4 µg | 27,9 µg | 44,6 µg | 23,3 µg | 12,3 µg | 13,2 µg | 18.7 (23.2, 19.2) ng/ml | 12.9 (13.6, 12.2) ng/ml | 14.0 ng/mL | 
4 | N#CC(=Cc1ccc(O)c(O)c1)C(=O)NCc1ccccc1 [SSI 16] |  | 100 | 41±4.3 | 23±2.0 |  |  |  |  |  |  |  |  |  |  |  |  |  |  | more active in inhibiting TNF-α cytotoxicity in vitro [1]: two to three fold; TNF toxicity (percentage of live cells) ([1]; SSI 3 50 uM, SSI 16 2 uM, SSI 17 2 and 10 uM, A9 cells with cyclohexamine, viability after 20 hours, TNF 0.2, 0.05 and 1.0 ng/ml): prevent TNF toxicity to different degrees; LPS induced NO production ([3]; 50 um, added 2 hours prior to LPS, 24 hours): markedly inhibit; NO production ([3]; 50 um, from an initial level of 70 uM (no LPS), 24 hours): ~30 µM; NO production ([3]; 50 um, from an initial level of 40 (10 ug/ml of LPS), 24 hours): approximately 20 uM; LPS induced toxicity in vivo (mice; 400 ug/mouse over 7 days with 10 mice): does not prevent
5 | N#CC(=Cc1ccc([N+](=O)[O-])c(O)c1)C(=O)NCCCc1ccccc1 [SSI 19] |  | 100 | 42±3.7 | 18±2.6 |  |  |  |  |  |  |  |  |  |  |  |  |  |  | preventing TNF toxicity ([1]; 2 and 10 uM): effective; toxicity to the indicator A9 cells ([1]; 50 um, by itself): toxic
6 | N#CC(=Cc1ccc([N+](=O)[O-])c(O)c1)C(=O)NCCCCc1ccccc1 [SSI 23] |  |  |  |  |  |  |  |  |  |  |  |  |  |  |  |  |  |  | preventing TNF toxicity in vitro ([1]; 50um, added at the same time, 1 hour prior to, or late (2hr) after the addition of TNF): effective; behaviour after dilution of the stock (made in DMSO) in PBS [5]: rapidly precipitates; solubility in aqueous solution [5]: very soluble; mice alive after 7 days (mice; 2.2 mg LPS/mouse, LPS alone 1 alive): 4 out of 5 mice; mice alive after 7 days (mice; 2.5 mg LPS/mouse, LPS alone 0 alive after 1 day): 2 out of 5 mice; induced lethality (mice; even when administered late after LPS): prevent
